The source of these data is ChEMBL document CHEMBL4385617 (Bioorg Med Chem Lett, 2019).

Assay [1] in a line: Inhibition of recombinant bacterial KPC-2 expressed in Escherichia coli assessed as reduction in breakdown of cephalosporin FC-5 by fluorescence method. Also on record: species or system Bacteria.
Assay [2] can be described thus: Inhibition of recombinant bacterial IMP-1 expressed in Escherichia coli assessed as reduction in breakdown of cephalosporin FC-5 by fluorescence method. Details: species or system Bacteria; call rule not given here.
The nature of assay [3]: Inhibition of recombinant bacterial NDM-1 expressed in Escherichia coli assessed as reduction in breakdown of cephalosporin FC-5 by fluorescence method. Also on record: species or system Bacteria.
Assay [4] can be described thus: Inhibition of recombinant bacterial VIM-1 expressed in Escherichia coli assessed as reduction in breakdown of cephalosporin FC-5 by fluorescence method. Also on record: species or system Bacteria.
Assay [5] in a line: Inhibition of recombinant bacterial CphA expressed in Escherichia coli assessed as reduction in hydrolysis of meropenem by UV spectrophotometeric analysis. Also on record: species or system Bacteria.
Assay [6] is described as follows: Inhibition of recombinant Escherichia coli OXA-48 assessed as reduction in breakdown of cephalosporin FC-5 in presence of 100 mM NaHCO3 by fluorescence method.
Assay [7] in a line: Inhibition of recombinant Stenotrophomonas maltophilia K279a L1 expressed in Escherichia coli using FC-5 as substrate by fluorescence method.
A short description of assay [8]: Inhibition of recombinant bacterial OXA-10 expressed in Escherichia coli assessed as reduction in breakdown of cephalosporin FC-5 by fluorescence method. Also on record: species or system Bacteria.
Assay [9] can be described thus: Inhibition of recombinant Escherichia coli OXA-10 assessed as reduction in breakdown of cephalosporin FC-5 in presence of 100 mM NaHCO3 by fluorescence method.
Assay [10] relates to Bacteria. Description: Inhibition of bacterial expressed in Escherichia coli OXA-10 assessed as reduction in breakdown of cephalosporin FC-5 at 400 uM by fluorescence method.
In assay [11] the test system is Escherichia coli. Description: Inhibition of NDM1 in Escherichia coli S117 clinical isolate assessed as potentiation of meropenem-induced antibacterial activity by measuring meropenem MIC at 8 ug/ml by broth microdilution method (Rvb > 64 ug/ml). A general note: Dilution methods test growth across graded concentrations, often in twofold steps.
In assay [12] the test system is Escherichia coli. Description: Inhibition of NDM1 in Escherichia coli IR57 clinical isolate assessed as potentiation of meropenem-induced antibacterial activity by measuring meropenem MIC at 8 ug/ml by broth microdilution method (Rvb > 64 ug/ml).
Assay [13] has as its target Metallo-beta-lactamase type 2 (Klebsiella pneumoniae) (UniProt C7C422). Nature of the assay: Inhibition of NDM1 in Klebsiella pneumoniae B64 clinical isolate assessed as potentiation of meropenem-induced antibacterial activity by measuring meropenem MIC at 8 ug/ml by broth microdilution method (Rvb > 64 ug/ml).
Assay [14] has the same target. Nature of the assay: Inhibition of NDM1 in Klebsiella pneumoniae B68-1 clinical isolate assessed as potentiation of meropenem-induced antibacterial activity by measuring meropenem MIC at 8 ug/ml by broth microdilution method (Rvb > 64 ug/ml).
Assay [15] shares this target. Nature of the assay: Inhibition of NDM1 in Klebsiella pneumoniae IR43 clinical isolate assessed as potentiation of meropenem-induced antibacterial activity by measuring meropenem MIC at 8 ug/ml by broth microdilution method (Rvb > 64 ug/ml).
The test system of assay [16] is Escherichia coli. Description: Inhibition of NDM1 in Escherichia coli 91N clinical isolate assessed as potentiation of meropenem-induced antibacterial activity by measuring meropenem MIC at 8 ug/ml by broth microdilution method (Rvb > 64 ug/ml).

Chain of Metallo-beta-lactamase type 2 (Klebsiella pneumoniae) (C7C422 whole entry): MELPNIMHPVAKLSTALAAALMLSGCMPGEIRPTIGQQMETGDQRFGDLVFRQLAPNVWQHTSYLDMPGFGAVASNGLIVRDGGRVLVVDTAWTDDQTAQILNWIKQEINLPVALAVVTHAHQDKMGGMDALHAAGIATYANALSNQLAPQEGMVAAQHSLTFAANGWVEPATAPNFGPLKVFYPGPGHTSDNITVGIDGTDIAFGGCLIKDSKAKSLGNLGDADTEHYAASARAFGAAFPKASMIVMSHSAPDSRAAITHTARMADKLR

Usually IC50 stands for the concentration needed to halve the response being measured. As to `NCc1ccc(C(=O)N[C@H]2Cc3cccc(C(=O)O)c3OB2O)cc1`, the IC50 in assay [1] was 30 nM; in assay [2] it was 1000 nM; in assay [3], 29 nM; in [4], 85 nM; in [5], above 100000 nM; in [6] it was 2600 nM. Besides, the IC50 entry in assay [7] is on record as “Not Active”.

One may read the inhibition as the share of the control response that was lost under treatment. Regarding `O=C(O)C[C@@H]1CC[C@H](NC(=O)Cc2cccs2)B(O)O1` [VABORBACTAM], the IC50 in assay [8] and in [9] was above 400000 nM each time. Moreover, the inhibition in assay [10] is below 50%. The MIC in assay [11], in [12], in assay [13], in assay [14], in [15] and in [16] was above 64 µg/mL throughout.
